PubChem BioAssay AID248 (DTP/NCI, 2004)
Inconclusive results and toxic doses are left out. No stated cut-off is given here; in the data, active means T/C of 150% or more; inactive means T/C below 125%.

System: L1210 leukemia ip in BDF1 mice, survival T/C
Experiment: NCI In Vivo Anticancer Drug Screen. Data for tumor model L1210 Leukemia (intraperitoneal) in B6D2F1 (BDF1) mice
Conditions: endpoint: mean survival time, higher = longer survival
How it was run: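 Read-out is survival time, reported as the treated-group measurement over the vehicle-control measurement.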

[1] = dose: 100.0 mg/kg/injection, schedule: Q01DX001 (ip), vehicle: saline
[2] = dose: 200.0 mg/kg/injection, schedule: Q01DX001 (ip), vehicle: saline
[3] = dose: 400.0 mg/kg/injection, schedule: Q01DX001 (ip), vehicle: saline
[4] = dose: 100.0 mg/kg/injection, schedule: Q01DX009 (ip), vehicle: Klucel (hydroxypropylcellulose) (HPC)
[5] = dose: 100.0 mg/kg/injection, schedule: Q04DX003 (ip), vehicle: Klucel (hydroxypropylcellulose) (HPC)
[6] = dose: 200.0 mg/kg/injection, schedule: Q01DX009 (ip), vehicle: Klucel (hydroxypropylcellulose) (HPC)
[7] = dose: 200.0 mg/kg/injection, schedule: Q04DX003 (ip), vehicle: Klucel (hydroxypropylcellulose) (HPC)
[8] = dose: 400.0 mg/kg/injection, schedule: Q01DX009 (ip), vehicle: Klucel (hydroxypropylcellulose) (HPC)
[9] = dose: 400.0 mg/kg/injection, schedule: Q04DX003 (ip), vehicle: Klucel (hydroxypropylcellulose) (HPC)
[10] = dose: 50.0 mg/kg/injection, schedule: Q01DX001 (ip), vehicle: saline

Measured: T/C

C/C(=N/N(C)C)c1ccc(Br)cc1
inactive: dose: 6.25 mg/kg/injection, schedule: Q01DX009 (ip), vehicle: saline 100 % of control | dose: 12.5 mg/kg/injection, schedule: Q01DX009 (ip), vehicle: saline 94 % of control | dose: 25.0 mg/kg/injection, schedule: Q01DX009 (ip), vehicle: saline 92 % of control | dose: 50.0 mg/kg/injection, schedule: Q01DX009 (ip), vehicle: Klucel (hydroxypropylcellulose) (HPC) 108 % of control

C1CCC(CCC(CCCC2CCCC2)CCC2CCCCC2)CC1
inactive: dose: 100.0 mg/kg/injection, schedule: Q01DX001 (ip), vehicle: saline with Tween-80 94 % of control | dose: 200.0 mg/kg/injection, schedule: Q01DX001 (ip), vehicle: saline with Tween-80 94 % of control | dose: 400.0 mg/kg/injection, schedule: Q01DX001 (ip), vehicle: saline with Tween-80 102 % of control

CC(C)(N)CN
inactive: [1] 96 % of control | [2] 96 % of control | [3] 94 % of control

CC(C)(C)C1CCNC(=O)CC1 (configuration not stated)
inactive: dose: 10.0 mg/kg/injection, schedule: Q01DX009 (ip), vehicle: Klucel (hydroxypropylcellulose) (HPC) 95 % of control | dose: 20.0 mg/kg/injection, schedule: Q01DX009 (ip), vehicle: Klucel (hydroxypropylcellulose) (HPC) 103 % of control | dose: 20.0 mg/kg/injection, schedule: Q04DX003 (ip), vehicle: Klucel (hydroxypropylcellulose) (HPC) 107 % of control | dose: 40.0 mg/kg/injection, schedule: Q04DX003 (ip), vehicle: Klucel (hydroxypropylcellulose) (HPC) 103 % of control | dose: 75.0 mg/kg/injection, schedule: Q01DX001 (ip), vehicle: carboxymethylcellulose (CMC) 102 % of control | dose: 150.0 mg/kg/injection, schedule: Q01DX001 (ip), vehicle: carboxymethylcellulose (CMC) 102 % of control | dose: 300.0 mg/kg/injection, schedule: Q01DX001 (ip), vehicle: carboxymethylcellulose (CMC) 96 % of control

CCCCCCC#CC(=O)O
inactive: dose: 100.0 mg/kg/injection, schedule: Q01DX009 (sc), vehicle: olive oil, sesame oil, peanut oil 103 % of control | dose: 100.0 mg/kg/injection, schedule: Q04DX003 (sc), vehicle: olive oil, sesame oil, peanut oil 97 % of control | dose: 200.0 mg/kg/injection, schedule: Q01DX009 (sc), vehicle: olive oil, sesame oil, peanut oil 108 % of control | dose: 200.0 mg/kg/injection, schedule: Q04DX003 (sc), vehicle: olive oil, sesame oil, peanut oil 106 % of control | dose: 400.0 mg/kg/injection, schedule: Q01DX009 (sc), vehicle: olive oil, sesame oil, peanut oil 95 % of control | dose: 400.0 mg/kg/injection, schedule: Q04DX003 (sc), vehicle: olive oil, sesame oil, peanut oil 108 % of control

COc1c(NC(=O)CC(C)=O)cccc1NC(=O)CC(C)=O
inactive: [4] 108 % of control | [5] 100 % of control | [6] 111 % of control | [7] 103 % of control | [8] 97 % of control | [9] 94 % of control

CC(C)(C)c1cc(O)c(O)c(C(C)(C)C)c1
inactive: dose: 25.0 mg/kg/injection, schedule: Q04DX003 (ip), vehicle: other 104 % of control | dose: 50.0 mg/kg/injection, schedule: Q04DX003 (ip), vehicle: other 104 % of control | dose: 100.0 mg/kg/injection, schedule: Q04DX003 (ip), vehicle: other 105 % of control

O=C(O)c1ccc(NC(c2ccccc2)c2ccc3cccnc3c2O)cc1 (configuration not stated)
inactive: [1] 86 % of control | [2] 89 % of control | [3] 86 % of control

CCOC(=O)C1(C(=O)OCC)CCC2Nc3cc4c(cc3C(=O)N21)OCO4 (configuration not stated)
inactive: dose: 12.5 mg/kg/injection, schedule: Q04DX003 (ip), vehicle: Klucel (hydroxypropylcellulose) (HPC) 99 % of control | dose: 25.0 mg/kg/injection, schedule: Q04DX003 (ip), vehicle: Klucel (hydroxypropylcellulose) (HPC) 100 % of control | dose: 50.0 mg/kg/injection, schedule: Q04DX003 (ip), vehicle: Klucel (hydroxypropylcellulose) (HPC) 96 % of control

COc1ccc(-c2sc(/N=C/c3cccs3)c(C#N)c2C)cc1OC
inactive: [4] 94 % of control | [6] 95 % of control | [8] 97 % of control

COc1c(Br)c(-c2ccccc2)nc2ccccc12
inactive: [1] 100 % of control | [2] 88 % of control | [3] 92 % of control

O=C(O)COc1ccc(C2(c3ccc(OCC(=O)O)cc3)CC3CC2C2CCCC32)cc1 (configuration not stated) (tested in a mixture with another compound)
inactive: dose: 100.0 mg/kg/injection, schedule: Q04DX002 (ip), vehicle: saline with Tween-80 93 % of control | dose: 200.0 mg/kg/injection, schedule: Q04DX002 (ip), vehicle: saline with Tween-80 93 % of control | dose: 400.0 mg/kg/injection, schedule: Q04DX002 (ip), vehicle: saline with Tween-80 106 % of control

CC(C)(CC(=O)O)NC(=O)c1ccccc1
inactive: dose: 100.0 mg/kg/injection, schedule: Q01DX001 (ip), vehicle: other 95 % of control | dose: 200.0 mg/kg/injection, schedule: Q01DX001 (ip), vehicle: other 106 % of control | dose: 400.0 mg/kg/injection, schedule: Q01DX001 (ip), vehicle: other 103 % of control

O=C1Cc2cc3c(cc2C=C2CCCN12)OCO3
inactive: dose: 50.0 mg/kg/injection, schedule: Q01DX001 (ip), vehicle: Klucel (hydroxypropylcellulose) (HPC) 103 % of control | dose: 100.0 mg/kg/injection, schedule: Q01DX001 (ip), vehicle: Klucel (hydroxypropylcellulose) (HPC) 97 % of control | dose: 200.0 mg/kg/injection, schedule: Q01DX001 (ip), vehicle: Klucel (hydroxypropylcellulose) (HPC) 101 % of control

Cc1nc2c(c(=O)[nH]1)OCN(Cc1ccccc1)C2
inactive: dose: 50.0 mg/kg/injection, schedule: Q01DX001 (ip), vehicle: carboxymethylcellulose (CMC) 96 % of control | dose: 100.0 mg/kg/injection, schedule: Q01DX001 (ip), vehicle: carboxymethylcellulose (CMC) 98 % of control | dose: 200.0 mg/kg/injection, schedule: Q01DX001 (ip), vehicle: carboxymethylcellulose (CMC) 98 % of control | dose: 400.0 mg/kg/injection, schedule: Q01DX001 (ip), vehicle: carboxymethylcellulose (CMC) 98 % of control

CO/N=C1/C=C(C)C(=O)C(C)=C1C
inactive: [10] 94 % of control | [1] 97 % of control | [4] 102 % of control | [5] 97 % of control | [2] 105 % of control | [6] 98 % of control | [7] 92 % of control | [3] 94 % of control | [8] 95 % of control | [9] 101 % of control

Nc1nc(N)c(-c2ccc(Cl)c(Cl)c2)c(C[P+](c2ccccc2)(c2ccccc2)c2ccccc2)n1
inactive: dose: 75.0 mg/kg/injection, schedule: Q01DX001 (ip), vehicle: saline 97 % of control

CNC(=O)C(c1ccccc1)C(O)c1ccccc1 (configuration not stated)
inactive: [10] 103 % of control | [1] 101 % of control | [2] 103 % of control

O=C(C[n+]1ccc2ccccc2c1)c1ccc([N+](=O)[O-])cc1
inactive: dose: 12.5 mg/kg/injection, schedule: Q04DX003 (ip), vehicle: saline 101 % of control | dose: 25.0 mg/kg/injection, schedule: Q04DX003 (ip), vehicle: saline 103 % of control | dose: 50.0 mg/kg/injection, schedule: Q04DX003 (ip), vehicle: saline 107 % of control

CC/C(=C(\CC)c1ccc(OCC(=O)OCCNCCCl)cc1)c1ccc(OCC(=O)OCCNCCCl)cc1
inactive: dose: 6.25 mg/kg/injection, schedule: Q04DX002 (ip), vehicle: saline 94 % of control | dose: 12.5 mg/kg/injection, schedule: Q04DX002 (ip), vehicle: saline 97 % of control | dose: 25.0 mg/kg/injection, schedule: Q04DX002 (ip), vehicle: saline 94 % of control
